From article PMC6770857, “Unraveling Binding Mechanism of Alzheimer’s Drug Rivastigmine Tartrate with Human Transferrin: Molecular Docking and Multi-Spectroscopic Approach towards Neurodegenerative Diseases” (Biomolecules, 2019) come the findings set out here.

Where a name gives a salt, the structure may show the parent alone.

The target in this assay is T1, human transferrin (hTf) (Homo sapiens, UniProt P02787).
T1 construct: gene TF
As to the kind of experiment: intrinsic fluorescence quenching, modified Stern-Volmer. It counts as binding. As to conditions: pH 7.4, 50 mM sodium phosphate, 301 K, 4 uM hTf, excitation 280 nm, n = 0.99; double-log. From the text:
intrinsic fluorescence quenching, modified Stern-Volmer on human transferrin (hTf)

T1 sequence (P02787 20-698): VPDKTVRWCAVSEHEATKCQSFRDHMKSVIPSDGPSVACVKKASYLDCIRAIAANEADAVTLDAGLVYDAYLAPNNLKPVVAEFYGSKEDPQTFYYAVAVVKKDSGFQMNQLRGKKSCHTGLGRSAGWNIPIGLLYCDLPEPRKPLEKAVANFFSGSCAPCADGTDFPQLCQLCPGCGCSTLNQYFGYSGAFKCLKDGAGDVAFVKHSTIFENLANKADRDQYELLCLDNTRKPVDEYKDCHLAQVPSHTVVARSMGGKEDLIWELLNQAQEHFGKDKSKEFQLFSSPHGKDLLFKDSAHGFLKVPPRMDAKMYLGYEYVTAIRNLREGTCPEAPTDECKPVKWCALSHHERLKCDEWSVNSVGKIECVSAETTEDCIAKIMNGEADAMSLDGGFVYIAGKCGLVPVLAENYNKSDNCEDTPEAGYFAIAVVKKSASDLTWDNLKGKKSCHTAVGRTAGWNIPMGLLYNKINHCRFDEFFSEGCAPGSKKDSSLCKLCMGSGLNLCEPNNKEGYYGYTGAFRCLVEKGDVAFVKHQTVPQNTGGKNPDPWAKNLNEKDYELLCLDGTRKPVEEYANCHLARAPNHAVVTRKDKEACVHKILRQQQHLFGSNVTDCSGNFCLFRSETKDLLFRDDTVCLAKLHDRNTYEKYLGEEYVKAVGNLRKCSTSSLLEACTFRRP

Regarding `CCN(C)C(=O)Oc1cccc([C@H](C)N(C)C)c1` [Rivastigmine tartrate], the “K (10^4 M^-1)” value is listed as 5.3 10^4 M^-1.
